Read-outs that look alike come from different tables or passages of the source.
Assay: 39-week oral (gavage) toxicity/toxicokinetic study with 13-week treatment-free recovery period in cynomolgus monkeys
Assay type: in vivo, cynomolgus monkeys (Macaca fascicularis)
Conditions: for AUC(0–24) / Cmax / AUC(0-t): mean; for Rac AUC(0–24 h) (accumulation ratio) / Rac C max (accumulation ratio): Week 39 / Day 1; for concentration at 13 weeks after last dose / half-life / t max / Cmax / AUC(0-t): cynomolgus monkey; for concentration at 13 weeks after last dose: oral, after 13‐week treatment‐free period, all four recovery monkeys; for half-life / t max / Cmax / AUC(0-t): plasma, po; for AUC(0-t): read-out: AUC(0–24) (converted)
Description: CETP is present and active in non‐human primates, rabbits, and hamsters, but is absent in most other animal species, including mice, rats, and dogs.[2], [31], [32] A non‐human primate study was conducted using cynomolgus monkeys (Macaca fascicularis) to evaluate the toxicity of obicetrapib (TA‐8995), following twice daily (b.i.d.), six h apart, oral (gavage) administration to the monkey for 39 weeks (Clinical Study Report [CSR], NewAmsterdam Pharma). The monkey was selected as the species for this study because the CETP structure in monkeys is very similar to the structure of human CETP.[33] The cynomolgus monkeys were obtained from Noveprim Ltd, Mauritius. The monkeys were approximately 26–30 months old when obtained for the study and 28–32 months old at the start of dosing. On arrival at the study site, the weight range of the monkeys was 2.4–3.3 kg. Individual body weights were recorded once weekly (including Day 1 before the start of dosing) from time of allocation and on the day of necropsy. At the start of dosing, the weight range of the monkeys was 2.4–3.3 kg and 2.5–3.9 kg for the females and males, respectively. The weight range of the monkeys at the end of the dosing period (Week 39) was 3.0–4.8 kg and 3.0–5.2 kg for females and males, respectively.
The weight range of the recovery monkeys (n = 8) at Week 14 of the recovery period, prior to necropsy, was 3.5–5.2 kg and 3.7–4.9 kg for the females and males, respectively.
The animals were housed in pens that conform to the “Code of practice for the housing and care of animals used in scientific procedures” in rooms exclusive to the study. The rooms were air‐conditioned to provide 15–20 air changes/hour, and the temperature and relative humidity ranges were maintained at 21–25°C and 40–70%, respectively. Fluorescent lighting was controlled automatically to give a cycle of 12 h light and 12 h dark, with the exception of when experimental procedures dictated otherwise. A number of strategies were used for environmental enrichment for the monkeys, such as the provision of toys (e.g., balls, inert nylon chews), swings, and foraging materials. The monkeys were offered ad libitum water, 100 g of SQC Mazuri Primate Diet (Special Diets Services Ltd., Witham, UK), and a 25 g Bonio biscuit (Spillers) each day. When available, the diet was supplemented twice daily with fresh fruit, fresh vegetables, forage mix, peanuts, raisins, or sunflower seeds. The study was conducted in accordance with the requirements of the Animals (Scientific Procedures) Act 1986 and a local ethical review was maintained (CSR, NewAmsterdam Pharma).
The monkeys (n = 40; 20 of each sex) were allocated into four groups (based on existing social groupings) to receive treatment for 39 weeks: a control group (no treatment), a low‐dose group (10 mg/kg/day [5 mg/kg/b.i.d.] of obicetrapib), an intermediate‐dose group (20 mg/kg/day [10 mg/kg/b.i.d.] of obicetrapib), and a high‐dose group (50 mg/kg/day [25 mg/kg/b.i.d.] of obicetrapib). Four monkeys (two of each sex) from the 50 mg/kg/day dose group and four (two of each sex) from the control group were followed for an extended treatment‐free period of 13 weeks (recovery period). Obicetrapib was dosed as a suspension in 0.5% sodium carboxylmethyl cellulose solution and 0.1% polyoxyethylene hydrogenated castor oil. Toxicokinetic parameters were examined after 39 weeks of dosing. Blood samples for toxicokinetic evaluation were taken from all monkeys in the study on Day 1 and Day 273 (Week 39) pre‐dose and at 0.5, 1, 2, 3, 4, 6, 7.5, 9, 10, 12, and 24 h after dosing. Blood samples for toxicokinetic assessments were taken from the recovery animals on multiple days during the treatment‐free period at the same time intervals as the 24‐hour samples in Week 39. Delayed onset toxicity and/or reversibility of toxicity were examined during the 13‐week treatment‐free period. […]

[1] = female, 10 mg/kg/day, Day 1, 10 mg/kg/d, females
[2] = female, 20 mg/kg/day, Day 1, 20 mg/kg/d, females
[3] = female, 50 mg/kg/day, Day 1, 50 mg/kg/d, females
[4] = male, 10 mg/kg/day, Day 1, 10 mg/kg/d, males
[5] = male, 20 mg/kg/day, Day 1, 20 mg/kg/d, males
[6] = male, 50 mg/kg/day, Day 1, 50 mg/kg/d, males

SMILES: CCOC(=O)N1c2ccc(C(F)(F)F)cc2C(N(Cc2cc(C(F)(F)F)cc(C(F)(F)F)c2)c2ncc(OCCCC(=O)O)cn2)CC1CC (stereo not shown) [Obicetrapib]
- AUC(0–24) (Day 273 (Week 39), 10 mg/kg/d, females): 41 300 ngh/mL
- AUC(0–24) (Day 273 (Week 39), 10 mg/kg/d, males): 40 300 ngh/mL
- AUC(0–24) (Day 273 (Week 39), 20 mg/kg/d, females): 54 000 ngh/mL
- AUC(0–24) (Day 273 (Week 39), 20 mg/kg/d, males): 65 200 ngh/mL
- AUC(0–24) (Day 273 (Week 39), 50 mg/kg/d, females): 103 000 ngh/mL
- AUC(0–24) (Day 273 (Week 39), 50 mg/kg/d, males): 111 000 ngh/mL
- Rac AUC(0–24 h) (accumulation ratio) (10 mg/kg/d, females, mean (SD)): 1.4 (0.2)
- Rac C max (accumulation ratio) (10 mg/kg/d, females, mean (SD)): 1.0 (0.2)
- Rac AUC(0–24 h) (accumulation ratio) (10 mg/kg/d, males, mean (SD)): 1.4 (0.3)
- Rac C max (accumulation ratio) (10 mg/kg/d, males, mean (SD)): 1.4 (0.1)
- Rac AUC(0–24 h) (accumulation ratio) (20 mg/kg/d, females, mean (SD)): 1.1 (0.2)
- Rac C max (accumulation ratio) (20 mg/kg/d, females, mean (SD)): 1.1 (0.2)
- Rac AUC(0–24 h) (accumulation ratio) (20 mg/kg/d, males, mean (SD)): 1.4 (0.2)
- Rac C max (accumulation ratio) (20 mg/kg/d, males, mean (SD)): 1.4 (0.3)
- Rac AUC(0–24 h) (accumulation ratio) (50 mg/kg/d, females, mean (SD)): 0.9 (0.2)
- Rac C max (accumulation ratio) (50 mg/kg/d, females, mean (SD)): 0.8 (0.1)
- Rac AUC(0–24 h) (accumulation ratio) (50 mg/kg/d, males, mean (SD)): 1.0 (0.1)
- Rac C max (accumulation ratio) (50 mg/kg/d, males, mean (SD)): 1.0 (0.2)
- concentration at 13 weeks after last dose (both sexes, fat homogenate, 50 mg/kg/day, read-out: obicetrapib in fat homogenate (below LLOQ)): < 0.5 ng/mL
- concentration at 13 weeks after last dose (both sexes, 50 mg/kg/day, perirenal white fat, read-out: obicetrapib in adipose tissue (below LLOQ), per g of fat): < 10 ng/g
- half-life (both sexes, Day 1, read-out: Apparent t 1/2 for the individual monkeys): 288 to 630 min
- half-life (both sexes, Day 1, read-out: mean t 1/2, range over groups): 348 to 432 min
- half-life (both sexes, Day 273, read-out: mean t 1/2, range over groups): 384 to 726 min
- half-life (both sexes, Week 39, with one exception, read-out: Apparent t 1/2 for the individual monkeys): 318 to 1100 min
- elimination of obicetrapib from plasma (end of 13‐week treatment‐free period, 50 mg/kg/day, both males and one female): complete
- obicetrapib detected in plasma, % of the observed maximum concentration (end of 13‐week treatment‐free period, 50 mg/kg/day, one recovery female): 0.25%
- time within which the mean C max was achieved (end of treatment, all of the monkeys, 3 h after the second dose): ≤ 9 h
- t max (female, 10 mg/kg/day, Day 1, 10 mg/kg/d, females, mean (SD)): 5.9 h
- half-life (female, 10 mg/kg/day, Day 1, 10 mg/kg/d, females, mean (SD), read-out: t ½ (elimination half‐life) (converted)): 432 min
- Cmax (female, 10 mg/kg/day, Day 273 (Week 39), 10 mg/kg/d, females): 3390 ng/mL
- t max (female, 10 mg/kg/day, Day 273 (Week 39), 10 mg/kg/d, females, mean (SD)): 4.8 h
- half-life (female, 10 mg/kg/day, Day 273 (Week 39), 10 mg/kg/d, females, mean (SD), read-out: t ½ (elimination half‐life) (converted)): 726 min
- Cmax [1]: 3300 ng/mL
- AUC(0-t) [1]: 29800 ng·h/mL
- t max (female, 20 mg/kg/day, Day 1, 20 mg/kg/d, females, mean (SD)): 4.8 h
- half-life (female, 20 mg/kg/day, Day 1, 20 mg/kg/d, females, mean (SD), read-out: t ½ (elimination half‐life) (converted)): 348 min
- Cmax (female, 20 mg/kg/day, Day 273 (Week 39), 20 mg/kg/d, females): 5160 ng/mL
- t max (female, 20 mg/kg/day, Day 273 (Week 39), 20 mg/kg/d, females, mean (SD)): 4.8 h
- half-life (female, 20 mg/kg/day, Day 273 (Week 39), 20 mg/kg/d, females, mean (SD), read-out: t ½ (elimination half‐life) (converted)): 528 min
- Cmax [2]: 4980 ng/mL
- AUC(0-t) [2]: 47800 ng·h/mL
- half-life (female, 50 mg/kg/day, 50 mg/kg/day group, female with detectable concentrations 13 weeks after the last dose, read-out: t ½ of one outlier female (converted)): 31000 min
- t max (female, 50 mg/kg/day, Day 1, 50 mg/kg/d, females, mean (SD)): 6.2 h
- half-life (female, 50 mg/kg/day, Day 1, 50 mg/kg/d, females, mean (SD), read-out: t ½ (elimination half‐life) (converted)): 408 min
- Cmax (female, 50 mg/kg/day, Day 273 (Week 39), 50 mg/kg/d, females): 8480 ng/mL
- t max (female, 50 mg/kg/day, Day 273 (Week 39), 50 mg/kg/d, females, mean (SD)): 6.6 h
- half-life (female, 50 mg/kg/day, Day 273 (Week 39), 50 mg/kg/d, females, mean (SD), does not include data from one outlier, read-out: t ½ (elimination half‐life) (converted)): 444 min
- half-life (female, 50 mg/kg/day, females in the high dose group (50 mg/kg/day), Week 39, read-out: mean t 1/2 including the outlier (converted)): 6540 min
- Cmax [3]: 11600 ng/mL
- AUC(0-t) [3]: 118000 ng·h/mL
- t max (male, 10 mg/kg/day, Day 1, 10 mg/kg/d, males, mean (SD)): 5 h
- half-life (male, 10 mg/kg/day, Day 1, 10 mg/kg/d, males, mean (SD), read-out: t ½ (elimination half‐life) (converted)): 408 min
- Cmax (male, 10 mg/kg/day, Day 273 (Week 39), 10 mg/kg/d, males): 3800 ng/mL
- t max (male, 10 mg/kg/day, Day 273 (Week 39), 10 mg/kg/d, males, mean (SD)): 2 h
- half-life (male, 10 mg/kg/day, Day 273 (Week 39), 10 mg/kg/d, males, mean (SD), read-out: t ½ (elimination half‐life) (converted)): 660 min
- Cmax [4]: 2800 ng/mL
- AUC(0-t) [4]: 29300 ng·h/mL
- t max (male, 20 mg/kg/day, Day 1, 20 mg/kg/d, males, mean (SD)): 2.5 h
- half-life (male, 20 mg/kg/day, Day 1, 20 mg/kg/d, males, mean (SD), read-out: t ½ (elimination half‐life) (converted)): 414 min
- Cmax (male, 20 mg/kg/day, Day 273 (Week 39), 20 mg/kg/d, males): 6410 ng/mL
- t max (male, 20 mg/kg/day, Day 273 (Week 39), 20 mg/kg/d, males, mean (SD)): 2.3 h
- half-life (male, 20 mg/kg/day, Day 273 (Week 39), 20 mg/kg/d, males, mean (SD), read-out: t ½ (elimination half‐life) (converted)): 486 min
- Cmax [5]: 4740 ng/mL
- AUC(0-t) [5]: 46600 ng·h/mL
- t max (male, 50 mg/kg/day, Day 1, 50 mg/kg/d, males, mean (SD)): 7.6 h
- half-life (male, 50 mg/kg/day, Day 1, 50 mg/kg/d, males, mean (SD), read-out: t ½ (elimination half‐life) (converted)): 408 min
- Cmax (male, 50 mg/kg/day, Day 273 (Week 39), 50 mg/kg/d, males): 9210 ng/mL
- t max (male, 50 mg/kg/day, Day 273 (Week 39), 50 mg/kg/d, males, mean (SD)): 8.5 h
- half-life (male, 50 mg/kg/day, Day 273 (Week 39), 50 mg/kg/d, males, mean (SD), read-out: t ½ (elimination half‐life) (converted)): 384 min
- Cmax [6]: 9600 ng/mL
- AUC(0-t) [6]: 118000 ng·h/mL
- mean body weights (recovery period, monkeys treated at 50 mg/kg/day (25 mg/kg/b.i.d.)): comparable with the control monkeys
- Group mean body weights (treated monkeys, dosing period): comparable with the control monkeys
